We go through two molecules from patent US11207301B2, “Sphingosine 1 phosphate receptor agonists for neuroprotection” (RECEPTOS LLC, priority 2017, dated 2021).

Type in all cases: cell-based
Test [1] has as its system AKT phosphorylation in primary rat astrocytes. The test can be described thus: AKT phosphorylation in primary rat astrocytes (MSD pAKT assay). The following applies: Astrocyte, 10 min, 10-minute exposure, mean of n=4. The procedure: (§1) For the experiments using rat primary astrocytes, eight-point concentration-response curves were generated for AKT and ERK phosphorylation in primary rat astrocytes cultures in response to a 10-minute treatment with ozanimod (100 nM-46 pM), Compound 3 (10 nM-5 pM), Compound 1 (10 nM-5 pM), or FTY720-P (10 nM-5 pM). Phosphorylation of AKT and ERK was quantified using Meso Scale Discovery assay kits (MSD Mutli-Spot Phopho-AKT (Ser473) Assay Kit and MSD Multi-Spot MAP Kinase Phosphoprotein Assay Whole Cell Lysate Kit) and imaging platform. AKT and ERK phosphorylation within treated astrocytes were assessed as the mean change in signal intensity compared to DMSO vehicle and the half maximal effective concentration (EC50) was determined using non-linear regression.
(§2) Embryonic day18 (E18) rat cortices were purchased from BrainBits LLC. (Springfield, Ill.) and were cultured according to the supplier's protocol. Briefly, cortices were incubated at 37° C. for 10 minutes in activated papain solution before trituration in hibernation medium containing B27 supplement using a modified siliconized glass Pasteur pipette. The cell suspension was centrifuged at 1100×g for 1 minute at room temperature (RT). The cell pellet was then resuspended in NbAstro medium (BrainBits LLC.) and the live cell density was assessed using a cell counter. Primary cells were plated at a density of 7500 cells/cm2 in T75 tissue culture flasks coated with poly-D-lysine (PDL) in a total volume of 12 mL of NbAstro media, and incubated for 10-14 days at 37° C. 5% CO2. After 10-14 days, primary astrocytes in passage 0 (P0) that had reached confluency in the T75 flasks were detached using TrypLE detachment reagent, pelleted at 300×g, and plated into poly-d-lysine coated T225 flasks in 20 mL of NbAstro media, and incubated for another 7 days at 37° C. 5% CO2. After 7 days, primary P1 astrocytes in confluent T225 flasks were detached using TrypLE detachment reagent, pelleted at 300×g, and plated intopoly-d-lysine coated 96-well plates at 10,000 cells per well in 200 μL of NbAstro media, and incubated for 7 days at 37° C. 5% CO2. After 7 days, P2 primary astrocytes were utilized for pAKT and pERK assays.
The pAKT (phosphorylated AKT) assay was performed according to the manufacturer's protocol. Briefly, MSD pAKT plates were blocked for 1-2 hours by adding 150 μL of blocker A prepared in 1× Tris wash buffer. […] Following antibody incubation, plates were washed three times with 150 μL of 1× Tris wash buffer and 1× read buffer (150 μL/well) was added. Finally, plates were read in the MSD imager platform to assess pAKT levels.
(§3) AKT and ERK phosphorylation data were analyzed by non-linear regression (GraphPad Prism, version 6) to determine the EC50 values.

For test [2], the system named is ERK phosphorylation in primary rat astrocytes. The test can be described thus: ERK phosphorylation in primary rat astrocytes (MSD pERK assay). The following applies: Astrocyte, 10 min, 10-minute exposure, mean of n=3. The protocol: as §1, §2
The pERK (phosphorylated ERK)/pMAPkinase assay was performed according to the manufacturer's protocol. Briefly, MSD pERK/pMAPkinase plates were blocked for 1-2 hours by adding 150 μL of blocker A prepared in 1× Tris wash buffer. […] Following antibody incubation, plates were washed three times with 150 μL of 1× Tris wash buffer and 1× read buffer (150 μL/well) was added. Finally, the plates were read in the MSD imager platform to assess the pERK levels.
as §3

Test [3] relates to AKT phosphorylation in primary mouse astrocytes. Description: AKT phosphorylation in primary mouse cortical astrocytes (AlphaLISA SureFire Ultra). Particulars: Astrocyte, 10 min, 10-minute exposure, mean of n=3. The procedure:
For the experiments using mouse and human primary astrocytes, ten-point concentration-response curves (90 nM-4.57 pM or 30 nM-1.52 pM) were generated for AKT and/or ERK phosphorylation in primary human and mouse cortical astrocytic cultures in response to a 10-minute treatment with ozanimod, Compound 3, Compound 1, or FTY720-P. AKT and ERK phosphorylation were quantified using AlphaLISA SureFire Ultra Assay kits and the EnVision Plate Reader. AKT and ERK phosphorylation within treated astrocytes were expressed as the mean change in signal intensity compared to the dimethyl sulfoxide (DMSO) vehicle and the half maximal effective concentration (EC50) was determined using non-linear regression.
Timed pregnant (E16) C57BL/6J female mice arrive to the test facility on a weekly basis and were housed and cared for according to appropriate protocols for this model. Primary mouse cortical astrocytes are harvested from P0-P2 pups. The newly born animals were deeply anesthetized on ice, decapitated, and the brains were rapidly removed and stored in ice-cold NbAstro media (BrainBits, LLC). Cells were dissociated from freshly dissected cortices by mechanical disruption in the presence of trypsin and DNase. Cells were put into a PDL coated T75 tissue culture flask containing 16 mL NbAstro Media and incubated at 37° C. 5% CO2. Once the mouse astrocytes had reached confluency in the T75 flask, they were detached using TripLE detachment reagent, pelleted at 300×g, expanded into two T225 PDL coated tissue culture flasks containing 40 mL of NbAstro and incubated at 37° C. 5% CO2. Once the astrocytes reached confluency in the T225 flasks they were detached using TrypLE detachment reagent, pelleted at 300×g, plated into PDL coated 96-well plates at a density of 10,000 cells per well in 200 μL NbAstro and incubated at 37° C. 5% CO2. Half of the media was replenished every 3-4 days. After 5-7 days of incubation, the P2 mouse astrocyte plates were utilized for the pERK and pAKT assays.
Cell lysis and detection of pAKT were performed according to the PerkinElmer AlphaLISA SureFire Ultra pAKT1/2/3 ([…]) assay protocol. Astrocytes were lysed in the 96-well plate following a 10 minute incubation with compounds with shaking at room temperature (RT). The astrocytic lysates (10 μL/well) were transferred into a 384-well OptiPlate. As specified by the assay protocol, an acceptor bead mix and a donor bead mix (5 μL/well for each) were added to the plate under subdued light. […] The plates were read on the EnVision Plate Reader to assess the pAKT levels.
The AKT and ERK phosphorylation data, collected by a Perkin Elmer EnVision Microplate Reader, was analyzed by non-linear regression (GraphPad Prism, version 7.03) to determine the EC50 values.
In general terms: Bead proximity is the source of the signal in Alpha formats.

By EC50 is commonly meant the concentration that produces a half-maximal response. Lower therefore signals an effect from little substance. In the case of `CC(C)Oc1ccc(-c2nc(-c3cccc4c3CCC4=O)no2)cc1C#N` [Compound 1, 2-isopropoxy-5-(3-(1-oxo-2,3-dihydro-1H-inden-4-yl)-1,2,4-oxadiazol-5-yl)benzonitrile], the EC50 in test [1] is 0.66 nM; in test [2], 0.29 nM; in test [3], 0.49 nM.
Regarding `CC(C)Oc1ccc(-c2nc(-c3cccc4c3CC[C@@H]4NCCO)no2)cc1C#N` [Ozanimod], the EC50 stood at 2.03 nM in test [1], 0.8 nM in test [2] and 0.9 nM in test [3].
